Experimental data: patent publication US5700789A, “Antiallergic composition comprising a phosphoric diester compound” (Senju Pharmaceutical Co., Ltd., priority 1995, dated 1997)
Where a name gives a salt, the structure may show the parent alone.

Tests used:
[1] = Acute toxicity (LD50) in rats; conditions: rat, in vivo, iv; i.v. (rats)
[2] = test system: palpebral edema induced by the histamine releaser Compound 48/80; assay: Palpebral edema induced by the histamine releaser Compound 48/80 in rats (topical instillation); assay type: in vivo, rat (male SD); conditions: 5 μl/eye of 0.1% test material; for Inhibition rate: edema inhibition rate with respect to the control group, 4 hr after Compound 48/80; for Edema weight: male SD rats, 6 instillations, wet weight 4 hr after Compound 48/80, * p<0.001 vs control
Protocol: The effect of the compound of the invention on the palpebral edema induced by the histamine releaser Compound 48/80 (the condensation product of N-methyl-p-methoxy-phenethylamine with formaldehyde) (Sigma Chemical Company) was evaluated.
(1) 0.1% L-ascorbyl DL-α-tocopheryl phosphate sodium (Abbreviation: EPC-Na) (dissolved in physiological saline and adjusted to pH 7.0)
(2) 0.1% diphenhydramine hydrochloride (an antihistaminic) (dissolved in physiological saline)
Method: Male SD rats weighing about 180 g were used.
The rats were divided into three groups, i.e. a control group, an EPC-Na group, and a diphenhydramine HCl group, and 20 μl/eye of 0.008% Compound 48/80 (dissolved in physiological saline) was injected subconjunctivally at both lids to induce palpebral edema. Two (2), 1, and 0.5 hr before subconjunctival injection and 0.5, 1.5, and 2.5 hr after the injection, rats in the control group were topically treated with 5 μl/eye of physiological saline and those in the EPC-Na group and diphenhydramine HCl group were similarly treated with 5 μl/eye of the corresponding test materials. Four (4) hr after injection of Compound 48/80 (1.5 hr after the last instillation), the rats were sacrificed and the edematous portion of the palpebra was excised, its wet weight (mg) was determined, and the edema inhibition rate (%) with respect to the control group was calculated.

[3] = test system: Type III allergic conjunctivitis; assay: Type III allergic conjunctivitis in rats (rat antirabbit serum injected subconjunctivally); assay type: in vivo; conditions: 5 μl/eye, 6 instillations, 0.1% EPC-Na or 0.1% as dexamethasone, wet weight 0.5 hr after last instillation, mean ± S.D. (n = 4), * p<0.001 vs control
Protocol: The effect of the compound of the invention on Type III allergic conjunctivitis was evaluated.
(1) 0.1% EPC-Na (dissolved in physiological saline)
(2) 0.15% dexamethasone sodium metasulfobenzoate
(Visualin Ophthalmic Solution (registered trademark, Senju Pharmaceutical Co. Ltd.) (0.1% as dexamethasone, hereinafter referred to briefly as dexamethasone)
The rats were divided into three groups, namely a control group, an EPC-Na group and a dexamethasone group, and 30 μl of rat antirabbit serum was injected subconjunctivally at both lids. Two (2), 1.5, and 0.5 hr before subconjunctival injection and 0.5, 1.5, and 2.5 hr after the injection, rats in the control group were topically treated with 5 μl/eye of physiological saline and those in the test groups were similarly treated with 5 μl/eye of the respective test materials. At 0.5 hr after the last instillation, the rats were sacrificed, the edema weight (wet weight/mg) was determined, and the inhibition rate (%) with respect to the control group was calculated.

Row | SMILES | LD50 [1] | Inhibition rate [2] | Edema weight [2] | Edema weight [3]
1 | Cc1c(C)c2c(c(C)c1OP(=O)(O)OC1=C(O)[C@@H]([C@@H](O)CO)OC1=O)CCC(C)(CCCC(C)CCCC(C)CCCC(C)C)O2 (mixture of isomers) [EPC-K, L-ascorbyl DL-α-tocopheryl phosphate potassium] | ≥ 100 mg/kg | – | – | –
2 | Cc1c(C)c2c(c(C)c1OP(=O)(O)OC1=C(O)[C@@H]([C@@H](O)CO)OC1=O)CCC(C)(CCCC(C)CCCC(C)CCCC(C)C)O2 (mixture of isomers) [EPC-Na, L-ascorbyl DL-α-tocopheryl phosphate sodium] | – | 33.5% | 76.1 ± 11.6 mg | 57.4 ± 8.1 mg
3 | C[C@@H]1C[C@H]2[C@@H]3CCC4=CC(=O)C=C[C@]4(C)[C@@]3(F)[C@@H](O)C[C@]2(C)[C@@]1(O)C(=O)COC(=O)c1cccc(S(=O)(=O)O)c1 [Dexamethasone, dexamethasone sodium metasulfobenzoate, reference compound] | – | – | – | 58.2 ± 3.8 mg
4 | CN(C)CCOC(c1ccccc1)c1ccccc1 [Diphenhydramine HCl, diphenhydramine hydrochloride, reference compound] | – | 44.8% | 63.2 ± 8.2 mg | –
